# Test results from ChEMBL document CHEMBL4257562, “Pseudomonas aeruginosa Quorum Sensing Systems as Drug Discovery Targets: Current Position and Future Perspectives” (J Med Chem, 2018).
# How the values were obtained:
# [1] = biological target: T1, Transcriptional activator protein LasR (Pseudomonas aeruginosa (strain ATCC 15692 / PAO1 / 1C / PRS 101 / LMG12228)) (UniProt P25084); assay: Non-competitive inhibition of Pseudomonas aeruginosa LasR expressed in Escherichia coli; conditions: concentration not given here
# T1 sequence (whole entry): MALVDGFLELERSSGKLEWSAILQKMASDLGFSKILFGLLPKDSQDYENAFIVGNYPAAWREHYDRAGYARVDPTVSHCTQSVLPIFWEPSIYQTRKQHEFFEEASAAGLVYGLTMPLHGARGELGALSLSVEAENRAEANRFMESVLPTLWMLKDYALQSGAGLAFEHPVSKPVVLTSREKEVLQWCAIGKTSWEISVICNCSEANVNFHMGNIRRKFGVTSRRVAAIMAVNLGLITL
# [2] = biological target: T2, HTH-type quorum-sensing regulator RhlR (Pseudomonas aeruginosa (strain ATCC 15692 / PAO1 / 1C / PRS 101 / LMG12228)) (UniProt P54292); assay: Non-competitive inhibition of Pseudomonas aeruginosa RhlR expressed in Escherichia coli; conditions: concentration not given here
# T2 sequence (whole entry): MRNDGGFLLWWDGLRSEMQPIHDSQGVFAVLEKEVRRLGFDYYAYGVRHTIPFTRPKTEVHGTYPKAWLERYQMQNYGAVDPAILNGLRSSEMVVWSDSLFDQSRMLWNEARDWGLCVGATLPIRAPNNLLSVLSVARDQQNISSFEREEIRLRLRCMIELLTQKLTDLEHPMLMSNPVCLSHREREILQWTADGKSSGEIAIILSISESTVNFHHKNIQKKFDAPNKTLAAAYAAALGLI
# Pseudomonas aeruginosa [3] = assay: Inhibition of Pseudomonas aeruginosa PQS signaling at 138 uM relative to control
# [4] = Inhibition of Pseudomonas aeruginosa PqsBC assessed as decrease in conversion of 2-ABA/octanoyl-CoA to HHQ measured every 60 secs
# [5] = Antagonist activity at Pseudomonas aeruginosa His6/Sumo-tagged PqsR by beta-galactosidase reporter gene assay
# [6] = Antagonist activity at Escherichia coli His6/Sumo-tagged PqsR by beta-galactosidase reporter gene assay
# [7] = biological target: T3, Transcriptional activator protein LasR (Pseudomonas aeruginosa (strain ATCC 15692 / PAO1 / 1C / PRS 101 / LMG12228), UniProt P25084); assay: Inhibition of LasR in Pseudomonas aeruginosa reporter strain harboring gfp-lasB
# T3 sequence (P25084 whole entry): T1 sequence (whole entry)
# [8] = biological target: T4, 2-heptyl-4(1H)-quinolone synthase PqsD (Pseudomonas aeruginosa, UniProt A0A0C7ACN7); assay: Antagonist activity at Pseudomonas aeruginosa PqsD
# T4 sequence (A0A0C7ACN7 whole entry): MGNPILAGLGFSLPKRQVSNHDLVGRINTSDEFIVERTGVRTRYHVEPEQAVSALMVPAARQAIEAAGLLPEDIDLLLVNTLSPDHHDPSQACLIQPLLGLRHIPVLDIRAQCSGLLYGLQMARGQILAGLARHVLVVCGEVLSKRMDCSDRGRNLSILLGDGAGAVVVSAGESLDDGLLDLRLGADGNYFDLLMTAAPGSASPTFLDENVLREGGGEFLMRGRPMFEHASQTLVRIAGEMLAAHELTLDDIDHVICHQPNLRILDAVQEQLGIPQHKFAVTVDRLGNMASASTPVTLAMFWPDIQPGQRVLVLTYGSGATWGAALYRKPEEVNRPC
# [9] = Antagonist activity at Pseudomonas aeruginosa PqsR
# [10] = biological target: T3, Transcriptional activator protein LasR; assay: Antagonist activity at LasR in Pseudomonas aeruginosa reporter strain
# [11] = biological target: T1, Transcriptional activator protein LasR (Pseudomonas aeruginosa (strain ATCC 15692 / PAO1 / 1C / PRS 101 / LMG12228)); assay: Inhibition of OC12-HSL-dependent LasR activation in Pseudomonas aeruginosa MH602 harboring GFP-fused quorum sensing lasB at 250 uM measured every 30 mins up to 15 hrs by GFP reporter gene assay
# [12] = biological target: T1, Transcriptional activator protein LasR (Pseudomonas aeruginosa (strain ATCC 15692 / PAO1 / 1C / PRS 101 / LMG12228)); assay: Antagonist activity at Pseudomonas aeruginosa LasR expressed in Pseudomonas putida F117 assessed as inhibition of 3-oxo-C12-HSL-induced protein activation at 20 uM after 4 hrs by fluorescence assay relative to control
# [13] = Inhibition of Pseudomonas aeruginosa PA14 PqsBC catalytic activity using 2-ABA/octanoyl-CoA as substrate after 5 mins
# [14] = biological target: T5, HTH-type quorum-sensing regulator RhlR (Pseudomonas aeruginosa (strain ATCC 15692 / PAO1 / 1C / PRS 101 / LMG12228), UniProt P54292); assay: Inhibition of Pseudomonas aeruginosa GFP-fused RhlR expressed in Escherichia coli BL21-Gold (DE3) co-expressing rhlA promoter by beta-galactosidase reporter gene assay
# T5 sequence (P54292 whole entry): T2 sequence (whole entry)
# [15] = biological target: T2, HTH-type quorum-sensing regulator RhlR (Pseudomonas aeruginosa (strain ATCC 15692 / PAO1 / 1C / PRS 101 / LMG12228)); conditions: 2.27 mM
# Description: Antagonist activity at Pseudomonas aeruginosa PAO1 GFP-fused RhlR expressed in Escherichia coli DH5alpha co-expressing rhlA promoter assessed as inhibition of L-arabinose-induced C4-HSL production at 2.27 mM after 5 hrs relative to control
# [16] = Antagonist activity at Escherichia coli DH5alpha PqsR by beta-galactosidase reporter gene assay
# Pseudomonas aeruginosa [17] = assay: In vivo inhibition of Pseudomonas aeruginosa PA14 PqsR in immunocompetent acute mouse thigh infection model assessed as decrease in PQS levels in plasma at 200 mg/kg, po administered at 2, 10, 18 and 26 hrs post infection measured at 12 hrs relative to control; format: functional
# [18] = biological target: T3, Transcriptional activator protein LasR; assay: Antagonist activity at Pseudomonas aeruginosa LasR expressed in Escherichia coli DH5alpha assessed as inhibition of protein interaction with OdDHL after 1.5 hrs by beta-galactosidase reporter gene assay
# Escherichia coli = assay: Antagonist activity at Escherichia coli LasR at 6 uM by luciferase reporter gene assay
# [19] = biological target: T3, Transcriptional activator protein LasR; assay: Inhibition of LasR in Pseudomonas aeruginosa harboring GFP-fused quorum sensing lasB measured every 15 mins up to 12 hrs by GFP reporter gene assay
# [20] = biological target: T3, Transcriptional activator protein LasR; assay: Antagonist activity at Pseudomonas aeruginosa LasR expressed in Escherichia coli DH5alpha assessed as inhibition of […]-induced receptor activation after 4 hrs by Miller-type beta-galactosidase reporter gene assay
# [21] = biological target: T3, Transcriptional activator protein LasR; assay: Antagonist activity at LasR in Pseudomonas aeruginosa PAO1 harboring GFP-fused quorum sensing lasB measured every 15 mins for 14 hrs by GFP reporter gene assay
# Pseudomonas aeruginosa [22] = assay: Antibiofilm activity against Pseudomonas aeruginosa PA14 at 100 uM; format: functional
# [23] = biological target: T4, 2-heptyl-4(1H)-quinolone synthase PqsD; assay: Inhibition of Pseudomonas aeruginosa PqsD
# [24] = biological target: T3, Transcriptional activator protein LasR; assay: Antagonist activity at GFP-fused LasR in Pseudomonas aeruginosa PAO-JP2 co-expressing LVAgfp plasmid by fluorescence assay
# [25] = Inhibition of Pseudomonas aeruginosa PqsR
# Pseudomonas aeruginosa [26] = assay: Inhibition of Pseudomonas aeruginosa quorum sensing system assessed as decrease in C4-HSL production at 6 mM relative to control
# Pseudomonas aeruginosa [27] = assay: Inhibition of Pseudomonas aeruginosa quorum sensing system assessed as decrease in 3OC12-HSL production at 6 mM relative to control
# [28] = biological target: T6, Acyl-homoserine-lactone synthase (Pseudomonas aeruginosa (strain ATCC 15692 / PAO1 / 1C / PRS 101 / LMG12228)) (UniProt P33883); assay: Inhibition of Pseudomonas aeruginosa PAO1 LasI after 10 mins by beta-galactosidase reporter gene assay
# T6 sequence (whole entry): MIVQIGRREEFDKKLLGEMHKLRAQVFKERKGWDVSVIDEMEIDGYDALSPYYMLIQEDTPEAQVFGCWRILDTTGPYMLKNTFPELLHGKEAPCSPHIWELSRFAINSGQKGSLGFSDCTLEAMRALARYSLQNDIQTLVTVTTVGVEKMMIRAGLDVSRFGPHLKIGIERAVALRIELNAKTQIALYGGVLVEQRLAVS
# [29] = biological target: T4, 2-heptyl-4(1H)-quinolone synthase PqsD; assay: Inhibition of recombinant Pseudomonas aeruginosa PqsD expressed in Escherichia coli using anthraniloyl-CoA as substrate assessed as decrease in HHQ production
# [30] = biological target: T4, 2-heptyl-4(1H)-quinolone synthase PqsD; assay: Binding affinity to recombinant Pseudomonas aeruginosa PqsD at 298 K by ITC assay
# [31] = biological target: T3, Transcriptional activator protein LasR; assay: Antagonist activity at Pseudomonas aeruginosa MW1 LasR assessed as inhibition of protein interaction with OdDHL by beta-galactosidase reporter gene assay
# [32] = Antagonist activity at Escherichia coli LasR assessed as inhibition of protein interaction with OdDHL by beta-galactosidase reporter gene assay
compound,measurement,setting,value
O=c1cc(-c2ccccc2)oc2c(O)c(O)ccc12,inhibition,[1],> 70%
same,inhibition,[2],> 70%
NCCCCCCCCCCCCNc1ccnc2cc(Cl)ccc12,inhibition,Pseudomonas aeruginosa [3],81%
CC(=O)c1ccccc1N [2-AMINOACETOPHENONE],EC50,[4],46 µM
CC(C)(C)c1ccc(C(=O)NO)cc1,IC50,[5],23.6 µM
same,IC50,[6],12.5 µM
C=CCSS/C=C/C[S+]([O-])CC=C (configuration not stated) [AJOENE],IC50,[7],15 µM
CCN(CC)S(=O)(=O)c1cc(C(=O)Nc2ccccc2C(=O)O)ccc1Br,IC50,[8],65 µM
CS(=O)(=O)c1ncc(-n2cc(C(O)C3CCCC3)nn2)cn1 (configuration not stated),IC50,[9],26 µM
O=C(CCSc1ccc(Cl)cc1)N[C@H]1CCOC1=O,IC50,[10],5.2 µM
CCCCCC(=O)Nc1c(-c2ccccc2)[nH]c2ccccc12,inhibition,[11],65%
CCCCc1cn(CC(=O)N[C@H]2CCOC2=O)nn1,IC50,[10],3.27 µM
NC(=O)SCNc1ccccc1O,inhibition,[12],50 to 60%
CCOC(=O)CNC(=O)C(=O)c1ccccc1Nc1ccc([N+](=O)[O-])cc1[N+](=O)[O-],inhibition,[11],48%
Cc1ccc2nc(SCC(=O)Nc3ccc(Br)cc3)[nH]c2c1,IC50,[13],12.5 µM
O=C(CCCCOc1cccc(Br)c1)NC1CCSC1=O (configuration not stated),IC50,[14],8 µM
C[S+]([O-])CCCCN=C=S (configuration not stated),inhibition,[15],42.1%
CCCCCCCc1cc(=O)c2cc(C(F)(F)F)ccc2[nH]1,IC50,[16],0.054 µM
NC(=O)c1cc2cc(Cl)ccc2cc1OCC(=O)c1c[nH]c2cc(C3CC3)ccc12,inhibition in vivo at 200 mg/kg,Pseudomonas aeruginosa [17],50%
CCCCCCCc1cc(=O)c2cc([N+](=O)[O-])ccc2[nH]1,IC50,[16],0.051 µM
O=C(CCCC1CCCCC1)N[C@H]1CCOC1=O,IC50,[18],10 µM
CCCCCCCSCC(=O)N[C@H]1CCOC1=O,inhibition,Escherichia coli,50%
Nc1ccc(S(=O)(=O)Nc2nccs2)cc1 [SULFATHIAZOLE],IC50,[19],9 µM
O=C(CCCCCCCCCN=C=S)CC(=O)N[C@H]1CCOC1=O,IC50,[20],134 µM
CCCCCCCOc1ccc(C(=O)N[C@H]2CCOC2=O)cc1,IC50,[18],1 µM
Nc1nc2nn[nH]c2c(=O)[nH]1 [8-AZAGUANINE],IC50,[21],0.64 µM
O=C(CSc1nc2ccc([N+](=O)[O-])cc2[nH]1)Nc1ccc(I)cc1,IC50,[13],13.4 µM
CCCCCCS(=O)(=O)c1ncc(-n2ccnn2)cn1,Activity,Pseudomonas aeruginosa [22],60%
same,IC50,[23],1.7 µM
O=C(CCCc1c[nH]c2ccccc12)N[C@H]1CCOC1=O,IC50,[24],16.1 µM
O=C(N[C@H]1CCOC1=O)c1ccc(-n2cc(CSc3ccccc3)nn2)cc1,IC50,[10],2.64 µM
O=C(CCc1ccc(Br)cc1)N[C@H]1CCOC1=O,IC50,[18],0.25 µM
CS(=O)(=O)c1ncc(-n2cnnn2)cn1,IC50,[25],15 µM
same,IC50,[23],21 µM
CN(C)CCc1ccc(O)cc1,inhibition,Pseudomonas aeruginosa [26],70%
same,inhibition,Pseudomonas aeruginosa [27],30%
CCCCCCC/C=C1\SC(=O)NC1=O,inhibition,[28],40%
Nc1cccc(-n2cc(CCC(=O)N[C@H]3CCOC3=O)nn2)c1,IC50,[10],4.03 µM
NC(=O)SCNc1cccc(Cl)c1,inhibition,[12],50 to 60%
O=[N+]([O-])c1ccccc1C(O)c1ccccc1 (configuration not stated),IC50,[29],3.2 µM
same,Kd,[30],13 µM
CCCCCCCC(=O)N[C@H]1CCOC1=O,IC50,[18],0.34 µM
O=C(Nc1ccccc1C(=O)O)c1ccc(-c2ccccc2)c(Oc2ccccc2)c1,IC50,[8],35 µM
O=C(Cc1cccc(I)c1)N[C@H]1CCOC1=O,IC50,[18],1.72 µM
CCCCCCCCNC(=O)CC(=O)c1ccccc1,IC50,[31],10 µM
O=C(NCCc1ccc(Br)cc1)c1ccccc1[N+](=O)[O-],IC50,[32],4.8 µM
O=C(Cc1ccc(Br)cc1)N[C@H]1CCOC1=O,IC50,[24],14.8 µM
